Where “and” joins values, the source holds several entries; their conditions need not be identical. Equal values may be shown once.
What was measured:
Format in all cases: physicochemical
[1] = Competitive test of Form I and Form VI (suspension equilibration, XRPD check); conditions: for Check result at 7 days (form of residual solid, XRPD): room temperature; for Check result at 21 days (form of residual solid, XRPD): 14 days RT then 40° C.; for Check result at 14 days (form of residual solid, XRPD): 7 days RT then 40° C.
Procedure: X-ray powder diffraction (XRD) patterns were obtained on a Bruker D8 Advance. A CuK source (=1.54056 angstrom) operating minimally at 40 kV and 40 mA scans each sample between 4 and 40 degrees 2-theta. The step size is 0.05° C. and scan speed is 0.5 second per step.
Two polymorphic forms of the compound of Formula I, Form I and Form VI, were suspended at the ratio of 1:1 in various solvents and equilibrated at room temperature for a period of time. The forms of the residual solid were checked at 7 days. If still a mixed form, continued to equilibrate at room temperature or 40° C. The solvents were EtOAc, iPoAc, Acetone, MEK, EtOH, IPA, IPE, MTBE, Hexane and Heptane.
XRPD profiles were acquired at the beginning and end of the experiment and compared to XRPD patterns of the known forms.

[2] = Preliminary accelerated stability test of Form VI (HPLC, XRPD, DSC); conditions: for Assay % / Average assay (%) / Peak area % / Total impurity (%): solid; for Assay % / Average assay (%) / Peak area %: HPLC; for Total impurity (%): peak area normalized method
Procedure: (§1) HPLCs were preformed using the following instrument and/or conditions.
(§2) Form VI of the compound of Formula I was used for the preliminary accelerated stability test. The samples were exposed to different stressed condition (40° C./75% RH and 60° C.) for 2 weeks. Standard controls were placed at −20° C. Samples and corresponding standard controls were pulled out for XRPD, DSC and HPLC analysis at 0 day, 1st week and 2nd week, respectively. The samples placed under condition without humidity were closed tightly with cap. The samples placed under humidity condition were just covered with aluminum foil with pinholes. HPLC steps were performed as described in Example 14.

[3] = Preliminary accelerated stability test of Form I, non-micronized and micronized (HPLC, XRPD, DSC); set-up: RRT 1.09: unit not given here; conditions: for Stability tested by HPLC, XRPD and DSC (degradation and crystal conversion): 40° C./75% RH and 60° C. for 2 weeks; for Assay % / Average Total impurity (%) / Average assay (%) / Peak area % / RRT 1.09 / Total impurity (%): solid, HPLC
Procedure: as §1
as §2, with “Form” for “Form VI of the compound of Formula”, “I (both non-micronized and micronized)” for “I”

## C=CC(=O)Nc1cccc(-c2cccc3cnc(Nc4ccc(N5CCN(CCO)CC5)c(F)c4F)nc23)c1 [Form I and Form VI, N-(3-(2-((2,3-difluoro-4-(4-(2-hydroxyethyl)piperazin-1-yl)phenyl)amino)quinazolin-8-yl)phenyl)acrylamide]
[1]; 1:1 suspension in EtOH
  Check result at 7 days (form of residual solid, XRPD): Form III and Form VI
[1]; 1:1 suspension in IPA
  Check result at 7 days (form of residual solid, XRPD): Form VI
[1]; 1:1 suspension in MEK
  Check result at 7 days (form of residual solid, XRPD): Form I
[1]; 1:1 suspension in MTBE
  Check result at 21 days (form of residual solid, XRPD): Form I
[1]; 1:1 suspension in acetone
  Check result at 7 days (form of residual solid, XRPD): Form I
[1]; 1:1 suspension in ethyl acetate (EtOAc)
  Check result at 14 days (form of residual solid, XRPD): Form I
[1]; 1:1 suspension in heptane
  Check result at 21 days (form of residual solid, XRPD): Mixed
[1]; 1:1 suspension in hexane
  Check result at 21 days (form of residual solid, XRPD): Mixed
[1]; 1:1 suspension in isopropyl acetate (iPoAc)
  Check result at 14 days (form of residual solid, XRPD): Form I
[1]; 1:1 suspension in isopropyl ether (IPE)
  Check result at 21 days (form of residual solid, XRPD): Mixed

## C=CC(=O)Nc1cccc(-c2cccc3cnc(Nc4ccc(N5CCN(CCO)CC5)c(F)c4F)nc23)c1 [Form VI, N-(3-(2-((2,3-difluoro-4-(4-(2-hydroxyethyl)piperazin-1-yl)phenyl)amino)quinazolin-8-yl)phenyl)acrylamide]
[2]; 40° C./75% RH and 60° C. for 2 weeks
  Stability tested by HPLC, XRPD and DSC (degradation and crystal conversion): No significant degradation and crystal conversion were detected
[2]; 40° C./75% RH, 7 days
  Assay %: 91.50% and 91.85%
  Average assay (%): 91.67%
  Peak area %: 99.0% and 99.1%
  Total impurity (%): 0.98% and 0.95%
[2]; 40° C./75% RH, 14 days
  Assay %: 92.13% and 91.45%
  Average assay (%): 91.79%
  Peak area %: 99.0%
  Total impurity (%): 0.99% and 0.96%
[2]; 60° C., 7 days
  Assay %: 91.61% and 93.76%
  Average assay (%): 92.68%
  Peak area %: 98.9% and 99.0%
  Total impurity (%): 1.10% and 1.04%
[2]; 60° C., 14 days
  Assay %: 91.82% and 91.77%
  Average assay (%): 91.80%
  Peak area %: 99.0% and 99.1%
  Total impurity (%): 1.01% and 0.94%
[2]; −20° C. (standard control)
  Assay %: 92.15% and 92.28%
  Average assay (%): 92.21%
  Peak area %: 99.0%
  Total impurity (%): 0.95% and 0.98%

## C=CC(=O)Nc1cccc(-c2cccc3cnc(Nc4ccc(N5CCN(CCO)CC5)c(F)c4F)nc23)c1 [micronized Form I, N-(3-(2-((2,3-difluoro-4-(4-(2-hydroxyethyl)piperazin-1-yl)phenyl)amino)quinazolin-8-yl)phenyl)acrylamide]
[3]
  Stability tested by HPLC, XRPD and DSC (degradation and crystal conversion): No significant degradation and crystal conversion were detected
[3]; 40° C./75% RH, 7 d
  Assay %: 97.67% and 97.30%
  Average Total impurity (%): 0.86%
  Average assay (%): 97.48%
  Peak area %: 99.14%
  RRT 1.09: 0.029 and 0.024
  Total impurity (%): 0.86%
[3]; 40° C./75% RH, 14 d
  Assay %: 96.20% and 98.00%
  Average Total impurity (%): 0.88%
  Average assay (%): 97.10%
  Peak area %: 99.11% and 99.12%
  RRT 1.09: 0.028
  Total impurity (%): 0.89% and 0.88%
[3]; 60° C., 7 d
  Assay %: 98.46% and 97.35%
  Average Total impurity (%): 0.85%
  Average assay (%): 97.90%
  Peak area %: 99.15%
  RRT 1.09: 0.022 and 0.028
  Total impurity (%): 0.85%
[3]; 60° C., 14 d
  Assay %: 98.52% and 98.23%
  Average Total impurity (%): 0.87%
  Average assay (%): 98.37%
  Peak area %: 99.12% and 99.13%
  RRT 1.09: 0.027 and 0.028
  Total impurity (%): 0.88% and 0.87%
[3]; RT
  Assay %: 98.74% and 98.36%
  Average Total impurity (%): 0.84%
  Average assay (%): 98.55%
  Peak area %: 99.14% and 99.18%
  RRT 1.09: 0.029 and 0.024
  Total impurity (%): 0.86% and 0.82%

## C=CC(=O)Nc1cccc(-c2cccc3cnc(Nc4ccc(N5CCN(CCO)CC5)c(F)c4F)nc23)c1 [non-micronized Form I, N-(3-(2-((2,3-difluoro-4-(4-(2-hydroxyethyl)piperazin-1-yl)phenyl)amino)quinazolin-8-yl)phenyl)acrylamide]
[3]
  Stability tested by HPLC, XRPD and DSC (degradation and crystal conversion): No significant degradation and crystal conversion were detected
[3]; 40° C./75% RH, 7 d
  Assay %: 98.28% and 98.59%
  Average Total impurity (%): 0.88%
  Average assay (%): 98.44%
  Peak area %: 99.12%
  RRT 1.09: 0.027 and 0.032
  Total impurity (%): 0.88%
[3]; 40° C./75% RH, 14 d
  Assay %: 98.24% and 97.53%
  Average Total impurity (%): 0.86%
  Average assay (%): 97.88%
  Peak area %: 99.14%
  RRT 1.09: 0.026 and 0.027
  Total impurity (%): 0.86%
[3]; 60° C., 7 d
  Assay %: 95.99% and 98.78%
  Average Total impurity (%): 0.85%
  Average assay (%): 97.38%
  Peak area %: 99.15%
  RRT 1.09: 0.030 and 0.028
  Total impurity (%): 0.85%
[3]; 60° C., 14 d
  Assay %: 98.38% and 99.25%
  Average Total impurity (%): 0.85%
  Average assay (%): 98.81%
  Peak area %: 99.17% and 99.14%
  RRT 1.09: 0.028
  Total impurity (%): 0.83% and 0.86%
[3]; RT
  Assay %: 98.98% and 99.18%
  Average Total impurity (%): 0.84%
  Average assay (%): 99.08%
  Peak area %: 99.18% and 99.14%
  RRT 1.09: 0.027
  Total impurity (%): 0.82% and 0.86%
